Data as given in patent US20250041204A1, “COMPOSITION COMPRISING LACTOBACILLUS CRISPATUS BACTERIAL LYSATES AND/OR BACTERIA FOR IMPROVING SKIN CONDITION” (BIOTIX PTE LTD, priority 2021, published 2025).

Legend:
[1] = system: primary adult keratinocytes (NHEK); assay: In vitro irritation model (SDS, MTT survival); assay type: cell-based; conditions: for protection of keratinocytes from SDS induced cell damage: in vitro irritant test, comparison of active principles
Procedure: Next, the functional effects of L. Crispatus in keratinocytes was investigated using an in vitro irritation model using primary adult keratinocytes (NHEK).
Primary keratinocytes from passage 2 to 3 were cultured in 96 well plates at a seed concentration of 7,000 cells/well and cultured in complete keratinocyte medium. […] After 2 hours pre incubation, cells were treated with SDS. 2 hours later MTT was added to the culture and incubated for further 2 hours for a total incubation time of 6 hours. After incubation, the MTT assay was developed according to manufacturing instruction and O.D was measured in a 96 well plate reader to determine the survival rate of the keratinocytes.

[2] = system: skin of healthy volunteers; assay: Skin irritant test in healthy volunteers (occlusive plaster on forearm); assay type: in vivo, human; conditions: SDS 4% in PBS alone, 24 hours occlusion
Procedure: The same amount of each solution was applied to a plaster with a dimension of 1 cm^2. The plasters containing the solutions were then applied on the forearm of healthy donors in occlusion to increase penetration of the solution into the skin. 24 hours after application, the plasters were removed, pictures were recorded and irritation was evaluated by blinded dermatologists.

Compound | protection of keratinocytes from SDS induced cell damage [1] | survival rate ([1]; SDS alone, 6 to 8 hours incubation, MTT) [%] | skin inflammation (erythema and immune cell infiltration) [2]
CC(C)(CO)[C@@H](O)C(=O)NCCCO [Panthenol] | not any other active principle protected | – | –
Ceramides | not any other active principle protected | – | –
CCCCCCCCCCCCOS(=O)(=O)[O-].[Na+] [SDS] | – | 0 | induced skin inflammation in all the individuals
